Measurements as given in patent US20220324925A1, “THERAPEUTIC PEPTIDES” (COHBAR, INC., priority 2019, published 2022).
Where no end group is shown, it is not given here. [ ]: non-standard residue; d: D form.

Legend:
3T3-L1 adipocytes = test: Free Fatty Acid Levels in cultured 3T3-L1 Adipocytes; details: for Free Fatty Acid Levels in 3T3-L1 Adipocytes Expressed as a Percent Isoproterenol Control, Percent of Control Value: test peptides 25 μM, 20-22 hours then isoproterenol (1 nM) 3 hours
Description: Following 12-15 days' differentiation, test peptides were added to a final concentration of 25 μM and incubated for 20-22 hours in Adipocyte Maintenance Medium. After 20-22 hours, isoproterenol (1 nM) was added to all wells except untreated controls and test peptides were replenished. Cells were incubated for a further 3 hours in Assay Buffer (Zen-Bio). Free fatty acid concentrations in the media were determined using a Free Fatty Acid Assay Kit (Zen-Bio) according to the manufacturer's instructions using a plate reader (540 nm). Absorbance values were corrected for untreated background and expressed relative to isoproterenol treated cells. Treatment with isoproterenol (1 nM) alone was used as the free fatty acid level stimulatory control. The relative standard deviation of the isoproterenol control was <10%.

MDA-MB-231 cells [1] = test: Cell viability, MTS Assay in MDA-MB-231 Cells; details: for MTS Assay in MDA-MB-231 Cells, Percent of Control Activity: 72 hours, relative to DMSO control, concentration not given
MCF-7 cells = test: Cell viability, MTS Assay in MCF-7 Cells; details: test peptides 10 μM, 72 hours, relative to DMSO control
MDA-MB-231 cells [2] = test: Caspase 3/7 Activity (Caspase-Glo 3/7 Assay) in MDA-MB-231 cells; assay type: cell-based, human; details: test peptides 10 μM, 18 hours, relative to DMSO control
Description: The effect of the peptides on cell death/survival can be assessed using a caspase-3 assay. […] MDA-MB-231 cells were grown in DMEM Medium supplemented with 10% FBS. […] Luminescence for each sample well on the plate was measured by Envision 2104 Multilabel Reader (PerkinElmer, Santa Clara, Calif.). Activity was calculated relative to DMSO control.

| Molecule | Free Fatty Acid Levels in 3T3-L1 Adipocytes Expressed as a Percent Isoproterenol Control, Percent of Control Value (3T3-L1 adipocytes) | other results |
| --- | --- | --- |
| 5 (P[dA]VLELIPLKIFEI[dA]PVFT) [compound 5] | 84% |  |
| 20 (R[dA]ERYTSIPRSEMVN[dA]SI[dA]F) [compound 20] | 96% |  |
| 19 (RCERYTSIPRSEMVN[dA]SIIF) [compound 19] | 78% |  |
| 13 (VSVLESALGRTRV; not fully specified (residue 7)) [compound 13] | 123% |  |
| 18 (RCERYTSIPRSEMVNASIIFM) [compound 18] | 96% |  |
| 7 (MSVWKVAVQTFNCYYYVLQALIN) [compound 7] | 128% | MTS Assay in MDA-MB-231 Cells, Percent of Control Activity (MDA-MB-231 cells [1]): 83%; MTS Assay in MCF-7 Cells, Percent of Control Activity (MCF-7 cells): 64%; Caspase 3/7 Activity in MDA-MB-231 Cells, Percent of Control Activity (MDA-MB-231 cells [2]): 54% |
| CN[C@@H]1C[C@H]2O[C@@](C)([C@@H]1OC)n1c3ccccc3c3c4c(c5c6ccccc6n2c5c31)C(=O)NC4 [staurosporine, reference compound] |  | Cell viability, % of the DMSO control value (MDA-MB-231 cells [1]; Staurosporine 10 uM, MDA-MB-231 cells, positive control): 3% |
| 10 (SVWKV[dA]VQTFNCYYYVLQ[dA]L) [compound 10] | 46% |  |
| 3 (PIVLELIPLKIFEIGPVFTL) [compound 3] | 68% |  |
| 14 (VSVLES[dA]LGRTRV) [compound 14] | 94% |  |
| 15 (VSVLES[dA]LGRTR[dA]) [compound 15] | 126% |  |
| 9 (SVWKVAVQTFNCYYYVLQAL; not fully specified (residues 6, 19)) [compound 9] | 134% |  |
| 17 (MRCERYTSIPRSEMVNASIIFM) [compound 17] | 108% | MTS Assay in MDA-MB-231 Cells, Percent of Control Activity (MDA-MB-231 cells [1]): 79%; MTS Assay in MCF-7 Cells, Percent of Control Activity (MCF-7 cells): 54%; Caspase 3/7 Activity in MDA-MB-231 Cells, Percent of Control Activity (MDA-MB-231 cells [2]): 51% |
| insulin [reference compound] |  | Free fatty acid levels, % of the isoproterenol control value (3T3-L1 adipocytes; insulin 100 nM, positive control): < 5% |
| 8 (SVWKVAVQTFNCYYYVLQALIN) [compound 8] | 117% |  |
| 12 (MVSVLESALGRTRV) [compound 12] | 124% | MTS Assay in MDA-MB-231 Cells, Percent of Control Activity (MDA-MB-231 cells [1]): 74%; MTS Assay in MCF-7 Cells, Percent of Control Activity (MCF-7 cells): 32%; Caspase 3/7 Activity in MDA-MB-231 Cells, Percent of Control Activity (MDA-MB-231 cells [2]): 44% |
| 2 (PIVLELIPLKIFEIGPVFTL) [compound 2] | 92% | MTS Assay in MDA-MB-231 Cells, Percent of Control Activity (MDA-MB-231 cells [1]): 78%; MTS Assay in MCF-7 Cells, Percent of Control Activity (MCF-7 cells): 71%; Caspase 3/7 Activity in MDA-MB-231 Cells, Percent of Control Activity (MDA-MB-231 cells [2]): 99% |
